Results reported in patent US20200283384A1, “ANTIBACTERIAL COMPOUNDS AND METHODS OF USE THEREOF” (Wayne State University, priority 2016, published 2020).
Converted amounts (≈) assume the structure as drawn. Where two headings read alike, the source gives them in different places.

System: 24 strains of S. aureus (SA1-SA24)
Assay: Broth micro-dilution MIC against 24 strains of S. aureus
Format: cell-based
Settings: for Effect against the panel of S. aureus strains: 24 strains SA1-SA24, broth micro-dilution; for MIC: Staphylococcus aureus, read-out: Compound MIC
Description: Compounds were tested for their anti-bacterial activity against 56 clinical isolates including 24 clinical isolates of methicillin resistant S. aureus (MRSA) and methicillin-susceptible S. aureus (MSSA), 8 strains of Enterococcus, 8 strains of Acinetobacter baumannii, 8 strains of Klebsiella pneumoniae, and 8 strains of Pseudomonas aeruginosa using a standard broth micro-dilution method as recommended by the Clinical and Laboratory Standard Institute (CLSI, M100, s23).
HN18 HN19, and HN34 were tested by a broth micro-dilution method to determine their minimal inhibitory concentration (MIC) against 24 strains of S. aureus (SA1-SA24) (Table 2). […]. Furthermore, the results for HN18 and HN34 were consistent across four repeated experiments. […]

## Fc1ccc(C(C2=CNC3C=CC=CC23)C2=C3C=CC=CC3NC2)cc1F (centres unmarked) [HN18, 3-((3,4-difluorophenyl)(2,7a-dihydro-1H-indol-3-yl)methyl)-3a,7a-dihydro-1H-indole]
  Effect against the panel of S. aureus strains: effective
Isolate SA1, experiment I
  MIC: 0.5 µg/mL (≈ 1.38 µM)
Isolate SA1, experiment II
  MIC: 1 µg/mL (≈ 2.76 µM)
Isolate SA1, experiment III
  MIC: 1 µg/mL (≈ 2.76 µM)
Isolate SA1, experiment IV
  MIC: 1 µg/mL (≈ 2.76 µM)
Isolate SA2, experiment I
  MIC: 1 µg/mL (≈ 2.76 µM)
Isolate SA2, experiment II
  MIC: 2 µg/mL (≈ 5.52 µM)
Isolate SA2, experiment III
  MIC: 2 µg/mL (≈ 5.52 µM)
Isolate SA2, experiment IV
  MIC: 2 µg/mL (≈ 5.52 µM)
Isolate SA3, experiment I
  MIC: 1 µg/mL (≈ 2.76 µM)
Isolate SA3, experiment II
  MIC: 2 µg/mL (≈ 5.52 µM)
Isolate SA3, experiment III
  MIC: 2 µg/mL (≈ 5.52 µM)
Isolate SA3, experiment IV
  MIC: 2 µg/mL (≈ 5.52 µM)
Isolate SA4, experiment I
  MIC: 1 µg/mL (≈ 2.76 µM)
Isolate SA4, experiment II
  MIC: 2 µg/mL (≈ 5.52 µM)
Isolate SA4, experiment III
  MIC: 1 µg/mL (≈ 2.76 µM)
Isolate SA4, experiment IV
  MIC: 2 µg/mL (≈ 5.52 µM)
Isolate SA5, experiment I
  MIC: 1 µg/mL (≈ 2.76 µM)
Isolate SA5, experiment II
  MIC: 1 µg/mL (≈ 2.76 µM)
Isolate SA5, experiment III
  MIC: 1 µg/mL (≈ 2.76 µM)
Isolate SA5, experiment IV
  MIC: 2 µg/mL (≈ 5.52 µM)
Isolate SA6, experiment I
  MIC: 1 µg/mL (≈ 2.76 µM)
Isolate SA6, experiment II
  MIC: 2 µg/mL (≈ 5.52 µM)
Isolate SA6, experiment III
  MIC: 2 µg/mL (≈ 5.52 µM)
Isolate SA6, experiment IV
  MIC: 2 µg/mL (≈ 5.52 µM)
Isolate SA7, experiment I
  MIC: 0.5 µg/mL (≈ 1.38 µM)
Isolate SA7, experiment II
  MIC: 1 µg/mL (≈ 2.76 µM)
Isolate SA7, experiment III
  MIC: 1 µg/mL (≈ 2.76 µM)
Isolate SA7, experiment IV
  MIC: 1 µg/mL (≈ 2.76 µM)
Isolate SA8, experiment I
  MIC: 1 µg/mL (≈ 2.76 µM)
Isolate SA8, experiment II
  MIC: 2 µg/mL (≈ 5.52 µM)
Isolate SA8, experiment III
  MIC: 2 µg/mL (≈ 5.52 µM)
Isolate SA8, experiment IV
  MIC: 2 µg/mL (≈ 5.52 µM)
Isolate SA9, experiment I
  MIC: 2 µg/mL (≈ 5.52 µM)
Isolate SA9, experiment II
  MIC: 2 µg/mL (≈ 5.52 µM)
Isolate SA10, experiment I
  MIC: 2 µg/mL (≈ 5.52 µM)
Isolate SA10, experiment II
  MIC: 2 µg/mL (≈ 5.52 µM)
Isolate SA11, experiment I
  MIC: 2 µg/mL (≈ 5.52 µM)
Isolate SA11, experiment II
  MIC: 2 µg/mL (≈ 5.52 µM)
Isolate SA12, experiment I
  MIC: 2 µg/mL (≈ 5.52 µM)
Isolate SA12, experiment II
  MIC: 2 µg/mL (≈ 5.52 µM)
Isolate SA13, experiment I
  MIC: 2 µg/mL (≈ 5.52 µM)
Isolate SA13, experiment II
  MIC: 2 µg/mL (≈ 5.52 µM)
Isolate SA14, experiment I
  MIC: 0.5 µg/mL (≈ 1.38 µM)
Isolate SA14, experiment II
  MIC: 0.5 µg/mL (≈ 1.38 µM)
Isolate SA15, experiment I
  MIC: 2 µg/mL (≈ 5.52 µM)
Isolate SA15, experiment II
  MIC: 2 µg/mL (≈ 5.52 µM)
Isolate SA16, experiment I
  MIC: 1 µg/mL (≈ 2.76 µM)
Isolate SA16, experiment II
  MIC: 2 µg/mL (≈ 5.52 µM)
Isolate SA17, experiment I
  MIC: 2 µg/mL (≈ 5.52 µM)
Isolate SA17, experiment II
  MIC: 2 µg/mL (≈ 5.52 µM)
Isolate SA18, experiment I
  MIC: 2 µg/mL (≈ 5.52 µM)
Isolate SA18, experiment II
  MIC: 2 µg/mL (≈ 5.52 µM)
Isolate SA19, experiment I
  MIC: 2 µg/mL (≈ 5.52 µM)
Isolate SA19, experiment II
  MIC: 2 µg/mL (≈ 5.52 µM)
Isolate SA20, experiment I
  MIC: 2 µg/mL (≈ 5.52 µM)
Isolate SA20, experiment II
  MIC: 2 µg/mL (≈ 5.52 µM)
Isolate SA21, experiment I
  MIC: 2 µg/mL (≈ 5.52 µM)
Isolate SA21, experiment II
  MIC: 2 µg/mL (≈ 5.52 µM)
Isolate SA22, experiment I
  MIC: 2 µg/mL (≈ 5.52 µM)
Isolate SA22, experiment II
  MIC: 2 µg/mL (≈ 5.52 µM)
Isolate SA23, experiment I
  MIC: 2 µg/mL (≈ 5.52 µM)
Isolate SA23, experiment II
  MIC: 2 µg/mL (≈ 5.52 µM)
Isolate SA24, experiment I
  MIC: 2 µg/mL (≈ 5.52 µM)
Isolate SA24, experiment II
  MIC: 2 µg/mL (≈ 5.52 µM)

## Cc1[nH]c2ccccc2c1C(c1ccc(F)c(F)c1)c1c(C)[nH]c2ccccc12 [HN34]
  Effect against the panel of S. aureus strains: effective
Isolate SA1, experiment I
  MIC: 1 µg/mL (≈ 2.59 µM)
Isolate SA1, experiment II
  MIC: 2 µg/mL (≈ 5.18 µM)
Isolate SA1, experiment III
  MIC: 1 µg/mL (≈ 2.59 µM)
Isolate SA1, experiment IV
  MIC: 1 µg/mL (≈ 2.59 µM)
Isolate SA2, experiment I
  MIC: 2 µg/mL (≈ 5.18 µM)
Isolate SA2, experiment II
  MIC: 2 µg/mL (≈ 5.18 µM)
Isolate SA2, experiment III
  MIC: 1 µg/mL (≈ 2.59 µM)
Isolate SA2, experiment IV
  MIC: 1 µg/mL (≈ 2.59 µM)
Isolate SA3, experiment I
  MIC: 2 µg/mL (≈ 5.18 µM)
Isolate SA3, experiment II
  MIC: 2 µg/mL (≈ 5.18 µM)
Isolate SA3, experiment III
  MIC: 2 µg/mL (≈ 5.18 µM)
Isolate SA3, experiment IV
  MIC: 2 µg/mL (≈ 5.18 µM)
Isolate SA4, experiment I
  MIC: 2 µg/mL (≈ 5.18 µM)
Isolate SA4, experiment II
  MIC: 2 µg/mL (≈ 5.18 µM)
Isolate SA4, experiment III
  MIC: 2 µg/mL (≈ 5.18 µM)
Isolate SA5, experiment I
  MIC: 1 µg/mL (≈ 2.59 µM)
Isolate SA5, experiment II
  MIC: 2 µg/mL (≈ 5.18 µM)
Isolate SA5, experiment III
  MIC: 1 µg/mL (≈ 2.59 µM)
Isolate SA5, experiment IV
  MIC: 2 µg/mL (≈ 5.18 µM)
Isolate SA6, experiment I
  MIC: 1 µg/mL (≈ 2.59 µM)
Isolate SA6, experiment II
  MIC: 1 µg/mL (≈ 2.59 µM)
Isolate SA6, experiment III
  MIC: 1 µg/mL (≈ 2.59 µM)
Isolate SA6, experiment IV
  MIC: 1 µg/mL (≈ 2.59 µM)
Isolate SA7, experiment I
  MIC: 1 µg/mL (≈ 2.59 µM)
Isolate SA7, experiment II
  MIC: 1 µg/mL (≈ 2.59 µM)
Isolate SA7, experiment III
  MIC: 1 µg/mL (≈ 2.59 µM)
Isolate SA7, experiment IV
  MIC: 1 µg/mL (≈ 2.59 µM)
Isolate SA8, experiment I
  MIC: 2 µg/mL (≈ 5.18 µM)
Isolate SA8, experiment II
  MIC: 2 µg/mL (≈ 5.18 µM)
Isolate SA8, experiment III
  MIC: 2 µg/mL (≈ 5.18 µM)
Isolate SA8, experiment IV
  MIC: 2 µg/mL (≈ 5.18 µM)
Isolate SA9, experiment I
  MIC: 0.5 µg/mL (≈ 1.29 µM)
Isolate SA10, experiment I
  MIC: 1 µg/mL (≈ 2.59 µM)
Isolate SA11, experiment I
  MIC: 1 µg/mL (≈ 2.59 µM)
Isolate SA12, experiment I
  MIC: 1 µg/mL (≈ 2.59 µM)
Isolate SA13, experiment I
  MIC: 1 µg/mL (≈ 2.59 µM)
Isolate SA14, experiment I
  MIC: 0.25 µg/mL (≈ 0.647 µM)
Isolate SA15, experiment I
  MIC: 1 µg/mL (≈ 2.59 µM)
Isolate SA16, experiment I
  MIC: 1 µg/mL (≈ 2.59 µM)
Isolate SA17, experiment I
  MIC: 1 µg/mL (≈ 2.59 µM)
Isolate SA18, experiment I
  MIC: 1 µg/mL (≈ 2.59 µM)
Isolate SA19, experiment I
  MIC: 1 µg/mL (≈ 2.59 µM)
Isolate SA20, experiment I
  MIC: 2 µg/mL (≈ 5.18 µM)
Isolate SA21, experiment I
  MIC: 1 µg/mL (≈ 2.59 µM)
Isolate SA22, experiment I
  MIC: 1 µg/mL (≈ 2.59 µM)
Isolate SA23, experiment I
  MIC: 1 µg/mL (≈ 2.59 µM)
Isolate SA24, experiment I
  MIC: 1 µg/mL (≈ 2.59 µM)
